Legend:
[1] = species on record: Homo sapiens; test: Reduction in post-surgical neuropathic pain intensity in cancer patient; assay type: functional; parameters: scale not given: the % may be the effect or the level left
[2] = species on record: Homo sapiens; test: Reduction in pain intensity in diabetic neuropathy patient; assay type: functional; parameters: scale not given: the % may be the effect or the level left

| SMILES | Activity [1] [%] | Activity [2] [%] |
| --- | --- | --- |
| NC12CC3CC(CC(C3)C1)C2 [AMANTADINE] | 31 |  |
| COc1ccc2c(c1)[C@]13CCCC[C@@H]1[C@H](C2)N(C)CC3 [DEXTROMETHORPHAN] |  | 24 |

Source: ChEMBL document CHEMBL1141457, “N-methyl-D-aspartate antagonists and neuropathic pain: the search for relief” (2007)
